Data from ChEMBL document CHEMBL4610043, “Design, synthesis and identification of novel, orally bioavailable non-covalent Nrf2 activators” (Bioorg Med Chem Lett, 2020).
≈ marks a conversion by molar mass, not a printed value.

What was measured:
[1] = Efflux ratio of apparent permeability in MDCK-MDR1 cells; format: ADME, cell-based, Canis lupus familiaris; conditions: dog
[2] = Clearance in rat at 1 mg/kg, iv; format: ADME, organism-based; conditions: in vivo
[3] = Distribution coefficient, log D of compound at pH 7.4 by shake flask method; format: physicochemical; conditions: octanol/water
[4] = Aqueous solubility of compound at pH 6.8 by shake flask method; format: physicochemical; conditions: buffer
[5] = Oral bioavailability in rat at 5 mg/kg; format: ADME, organism-based; conditions: in vivo
[6] = Volume of distribution at steady state in rat at 1 mg/kg, iv; format: ADME, organism-based; conditions: in vivo, read-out: Vdss
[7] = Protein binding in mouse brain assessed as unbound fraction; format: ADME, tissue-based
[8] = Protein binding in rat plasma assessed as unbound fraction at 2 uM by rapid equilibrium dialysis method; format: ADME, cell-free
[9] = Half life in rat at 1 mg/kg, iv; format: ADME, organism-based; conditions: in vivo
[10] = Cmax in rat at 5 mg/kg, po; format: ADME, organism-based; set-up: dose 5 mg/kg, route oral; conditions: in vivo
[11] = Protein binding in mouse plasma assessed as unbound fraction at 2 uM by rapid equilibrium dialysis method; format: ADME, cell-free
[12] = Protein binding in human plasma assessed as unbound fraction at 2 uM by rapid equilibrium dialysis method; format: ADME, cell-free
[13] = fCmax In C57BL/6 mouse at 10 mg/kg, po; format: ADME, organism-based; conditions: in vivo
[14] = Unbound brain to plasma concentration ratio in mouse; format: ADME; conditions: brain and plasma, read-out: K(p,uu,brain)
[15] = Tmax in rat at 5 mg/kg, po; format: ADME, organism-based; conditions: in vivo
[16] = AUC in rat at 5 mg/kg, po; format: ADME, organism-based; conditions: in vivo
[17] = AUC in rat at 1 mg/kg, iv; format: ADME, organism-based; conditions: in vivo
[18] = Cmax in C57BL/6 mouse at 10 mg/kg, po; format: ADME, organism-based; set-up: dose 10 mg/kg, route oral; conditions: in vivo

SMILES | efflux ratio [1] | clearance [2] [mL/min/kg] | logD [3] | solubility thermodynamic [4] [µg/mL] | bioavailability [5] [%] | Vd [6] [L/kg] | fraction unbound [7] | fraction unbound at 2 µM [8] | half-life [9] [h] | Cmax [10] [ng/mL] | fraction unbound at 2 µM [11] | fraction unbound at 2 µM [12] | fCmax [13] [nM] | Kp uu [14] | Tmax [15] [h] | AUC [16] [ng·h/mL] | AUC [17] [ng·h/mL] | Cmax [18] [µM]
CCn1nnc2c(C)c([C@H](c3ccc4c(c3)CN(C(=O)c3c(C)c(C)cc(C)c3C)CC4)C(C)(C)C(=O)O)ccc21 | 104 |  |  |  |  |  |  |  |  |  |  |  |  |  |  |  |  | 
CCn1nnc2c(C)c([C@@H](CC(=O)O)c3ccc4c(c3)CN(C(=O)c3c(C)c(C)cc(C)c3C)CC4)ccc21 |  | 6.16 | 1.39 | 29.5 (≈ 56.2 µM) | 20 | 0.707 | 0.0211 | 0.00568 | 3.77 | 958 | 0.00505 | 0.00708 | 33 | 0.04 | 0.92 | 2720 | 2510 | 6.7
